Where “and” joins values, the source holds several entries; their conditions need not be identical. Equal entries are not always repeated.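 96-well plates; 48 h exposure; 5 concentrations. Endpoints by linear interpolation between flanking doses. Not reached: highest tested concentration assigned. GI50 marks 50% less growth.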 Calls of active or inactive are those of the source. No stated cut-off is given here; in the data, active = GI50 up to about 1.1 µM and inactive = higher.
Tests used:
Assay in all cases: DTP human tumour cell line panel, 48 h
RXF 393 = test system: RXF 393
MDA-MB-435 = test system: MDA-MB-435
SK-MEL-5 = test system: SK-MEL-5
HOP-92 = test system: HOP-92
CCRF-CEM = test system: CCRF-CEM
SNB-19 = test system: SNB-19
UACC-257 = test system: UACC-257
NCI/ADR-RES = test system: NCI/ADR-RES
NCI-H23 = test system: NCI-H23
SF-295 = test system: SF-295
CAKI-1 = test system: CAKI-1
Hs-578T = test system: Hs-578T
HCT-116 = test system: HCT-116
COLO 205 = test system: COLO 205
KM12 = test system: KM12
SN12C = test system: SN12C
HOP-62 = test system: HOP-62
OVCAR-3 = test system: OVCAR-3
LOX IMVI = test system: LOX IMVI
NCI-H522 = test system: NCI-H522

Compound	GI50 (RXF 393)	GI50 (MDA-MB-435)	GI50 (SK-MEL-5)	GI50 (HOP-92)	GI50 (CCRF-CEM)	GI50 (SNB-19)	GI50 (UACC-257)	GI50 (NCI/ADR-RES)	GI50 (NCI-H23)	GI50 (SF-295)	GI50 (CAKI-1)	GI50 (Hs-578T)	GI50 (HCT-116)	GI50 (COLO 205)	GI50 (KM12)	GI50 (SN12C)	GI50 (HOP-62)	GI50 (OVCAR-3)	GI50 (LOX IMVI)	GI50 (NCI-H522)
N#Cc1c(-c2ccc(F)cc2)c(-c2ccc(F)cc2)nn(CCO)c1=O	0.378 µM (active)	0.0641 µM (active)	0.175 µM (active)	1.91 µM (inactive)	0.564 µM (active)	4.9 µM (inactive)	1.19 µM (inactive)	0.805 µM (active)	0.948 µM (active)	0.224 µM (active)	1.53 µM (inactive)	0.885 µM (active)	0.119 µM (active)	0.24 µM (active)	0.126 µM (active)	0.27 µM (active)	0.493 µM (active)	0.242 µM (active)	–	–
CC(C)(C)n1c(=O)[nH]n(C2NN=Cc3cccc4cccc2c34)c1=O (centres undefined)	10.9 µM (inactive)	34.3 µM (inactive)	–	–	11.5 µM (inactive)	34.9 µM (inactive)	54.3 µM (inactive)	32.8 µM (inactive)	31.6 µM (inactive)	–	27.5 µM (inactive)	39.4 µM (inactive)	38.5 µM (inactive)	30 µM (inactive)	34 µM (inactive)	79.3 µM (inactive)	–	51.9 µM (inactive)	26.9 µM (inactive)	–
O=C(O)C1CC(C2CCCCN2)CN2CCCCC12 (centres undefined)	> 100 µM (inactive)	> 100 µM (inactive)	> 100 µM (inactive)	> 100 µM (inactive)	> 100 µM (inactive)	> 100 µM (inactive)	> 100 µM (inactive)	> 100 µM (inactive)	> 100 µM (inactive)	> 100 µM (inactive)	> 100 µM (inactive)	> 100 µM (inactive)	> 100 µM (inactive)	> 100 µM (inactive)	> 100 µM (inactive)	> 100 µM (inactive)	> 100 µM (inactive)	> 100 µM (inactive)	> 100 µM (inactive)	–
N#Cc1nc(-c2cnccn2)oc1N	> 100 µM (inactive)	> 100 µM (inactive)	> 100 µM (inactive)	> 100 µM (inactive)	> 100 µM (inactive)	> 100 µM (inactive)	> 100 µM (inactive)	–	–	–	> 100 µM (inactive)	> 100 µM (inactive)	> 100 µM (inactive)	–	> 100 µM (inactive)	> 100 µM (inactive)	> 100 µM (inactive)	–	> 100 µM (inactive)	–
CC(C)CC1CC2C(=O)N(c3ccccc3)C(=O)C2c2[nH]c3ccccc3c21 (centres undefined)	14.6 µM (inactive)	–	> 80.9 µM (inactive)	18.6 µM (inactive)	16 µM (inactive)	40.9 µM (inactive)	26.5 µM (inactive)	–	> 45.1 µM (inactive)	20.7 µM (inactive)	18.7 µM (inactive)	–	11.4 µM (inactive)	31 µM (inactive)	52.7 µM (inactive)	13.9 µM (inactive)	18.8 µM (inactive)	13.1 µM (inactive)	16.8 µM (inactive)	20.9 µM (inactive)
CCOC(=O)c1cc2c3c(c(O)c(OC)c2s1)N(C(=O)c1cc2c4c(c(O)c(OC)c2s1)N(C(C)=O)CC4)CC3	54.1 µM (inactive)	–	85.1 µM (inactive)	29 µM (inactive)	> 100 µM (inactive)	> 100 µM (inactive)	> 100 µM (inactive)	–	> 100 µM (inactive)	54.3 µM (inactive)	> 100 µM (inactive)	–	> 100 µM (inactive)	> 100 µM (inactive)	> 100 µM (inactive)	> 100 µM (inactive)	35.6 µM (inactive)	24.4 µM (inactive)	> 100 µM (inactive)	> 100 µM (inactive)
O=C(O)c1cc(N(Cc2ccccc2O)Cc2cc(O)ccc2O)ccc1O [LAVENDUSTIN A]	> 100 µM (inactive)	> 100 µM (inactive)	> 100 µM (inactive)	> 100 µM (inactive)	45.4 µM (inactive)	> 100 µM (inactive)	> 100 µM (inactive)	> 100 µM (inactive)	> 100 µM (inactive)	> 100 µM (inactive)	–	19.8 µM (inactive)	> 100 µM (inactive)	> 100 µM (inactive)	> 100 µM (inactive)	> 100 µM (inactive)	> 100 µM (inactive)	> 100 µM (inactive)	34.9 µM (inactive)	–
O=C(COc1ccc(OCC(=O)N2C(=O)CC(=O)N(c3ccccc3)C2=S)cc1)N1C(=O)CC(=O)N(c2ccccc2)C1=S	25.5 µM (inactive)	76 µM (inactive)	–	52 µM (inactive)	–	69.7 µM (inactive)	82.2 µM (inactive)	> 100 µM (inactive)	64.4 µM (inactive)	56.6 µM (inactive)	0.851 µM (active)	–	22.5 µM (inactive)	61.2 µM (inactive)	27.4 µM (inactive)	> 100 µM (inactive)	–	–	–	38.1 µM (inactive)
CCOC(=O)Nc1nn(C)/c(=N/Cc2ccccc2)s1	> 100 µM (inactive)	> 100 µM (inactive)	> 100 µM (inactive)	> 100 µM (inactive)	> 100 µM (inactive)	> 100 µM (inactive)	> 100 µM (inactive)	–	–	> 100 µM (inactive)	> 100 µM (inactive)	> 100 µM (inactive)	> 100 µM (inactive)	> 100 µM (inactive)	> 100 µM (inactive)	> 100 µM (inactive)	> 100 µM (inactive)	> 100 µM (inactive)	> 100 µM (inactive)	86.3 µM (inactive)
COC(=O)C(N)CCCC(N)C(=O)NC(C)C(=O)NC(CCC(=O)NCCCNc1ccc([N+](=O)[O-])c2[nH]c3ccccc3c(=O)c12)C(N)=O (centres undefined)	9.55 µM (inactive)	5.01 µM (inactive)	11.7 µM (inactive)	11.4 µM (inactive)	3.9 µM (inactive)	4 µM (inactive)	8.79 µM (inactive)	6.07 µM (inactive)	5.68 µM (inactive)	6.24 µM (inactive)	6.64 µM (inactive)	–	2.33 µM (inactive)	3.85 µM (inactive)	4.91 µM (inactive)	–	7.26 µM (inactive)	10.8 µM (inactive)	3.24 µM (inactive)	–
Cn1nc(/C=C\C(=O)N2CC(CCl)c3c2cc(N)c2ccccc32)cc1/C=C/C(=O)N1CC(CCl)c2c1cc(N)c1ccccc21 (centres undefined)	< 0.01 µM (active)	< 0.01 µM (active)	< 0.01 µM (active)	–	< 0.01 µM (active)	< 0.01 µM (active)	0.0225 µM (active)	0.0124 µM (active)	< 0.01 µM (active)	< 0.01 µM (active)	< 0.01 µM (active)	–	< 0.01 µM (active)	< 0.01 µM (active)	< 0.01 µM (active)	< 0.01 µM (active)	< 0.01 µM (active)	< 0.01 µM (active)	< 0.01 µM (active)	< 0.01 µM (active)
CCCCCCCCCCCCCCCC(=O)OCC1OC(N2C(=O)/C(=N\NC(N)=S)c3ccc([N+](=O)[O-])cc32)C(OC(C)=O)C1OC(C)=O (centres undefined)	> 100 µM (inactive)	–	97.5 µM (inactive)	93.5 µM (inactive)	> 100 µM (inactive)	> 100 µM (inactive)	> 100 µM (inactive)	–	> 100 µM (inactive)	> 100 µM (inactive)	> 100 µM (inactive)	–	29 µM (inactive)	37.1 µM (inactive)	74.1 µM (inactive)	> 100 µM (inactive)	> 100 µM (inactive)	60.3 µM (inactive)	99.3 µM (inactive)	36.6 µM (inactive)
COc1ccc2oc(=N)c(C(=O)Nc3cccc4ccccc34)cc2c1	4.69 µM (inactive)	0.319 µM (active)	> 100 µM (inactive)	–	2.33 µM (inactive)	13.5 µM (inactive)	32 µM (inactive)	25.8 µM (inactive)	29.4 µM (inactive)	5.41 µM (inactive)	29.5 µM (inactive)	30.2 µM (inactive)	27.7 µM (inactive)	> 100 µM (inactive)	27.7 µM (inactive)	37.8 µM (inactive)	11 µM (inactive)	10.4 µM (inactive)	–	–
OC(c1ccccc1)(c1ccccc1)c1ccccn1	> 100 µM (inactive)	–	> 100 µM (inactive)	> 100 µM (inactive)	> 100 µM (inactive)	> 100 µM (inactive)	> 100 µM (inactive)	–	83 µM (inactive)	> 100 µM (inactive) and 80.5 µM (inactive)	> 100 µM (inactive) and 85.7 µM (inactive)	–	> 100 µM (inactive)	> 100 µM (inactive)	> 100 µM (inactive)	> 100 µM (inactive)	> 100 µM (inactive)	> 100 µM (inactive)	> 100 µM (inactive)	> 100 µM (inactive)
CCN(CC)C(=S)SC [METHYLDIETHYL CARBAMODITHIOATE]	> 100 µM (inactive)	–	> 100 µM (inactive)	> 100 µM (inactive)	> 100 µM (inactive)	> 100 µM (inactive)	> 100 µM (inactive)	> 100 µM (inactive)	> 100 µM (inactive)	> 100 µM (inactive)	–	> 100 µM (inactive)	> 100 µM (inactive)	> 100 µM (inactive)	–	> 100 µM (inactive)	> 100 µM (inactive)	> 100 µM (inactive)	> 100 µM (inactive)	> 100 µM (inactive)
O=C(CN1CCOCC1)c1ccc2c(c1)oc(=O)n2CCN1CCOCC1	> 100 µM (inactive)	> 100 µM (inactive)	> 100 µM (inactive)	–	> 100 µM (inactive)	> 100 µM (inactive)	–	> 100 µM (inactive)	–	> 100 µM (inactive)	> 100 µM (inactive)	> 100 µM (inactive)	> 100 µM (inactive)	> 100 µM (inactive)	> 100 µM (inactive)	> 100 µM (inactive)	> 100 µM (inactive)	> 100 µM (inactive)	> 100 µM (inactive)	–
